Values joined by “and” are separate entries in the source; they are usually repeats but may differ in a detail not shown here. Equal values may be shown once.
Columns and labels:
Carbonic anhydrase 4 = biological target: T1, Carbonic anhydrase 4 (Bos taurus, UniProt Q95323)
T1 sequence (Q95323 whole entry): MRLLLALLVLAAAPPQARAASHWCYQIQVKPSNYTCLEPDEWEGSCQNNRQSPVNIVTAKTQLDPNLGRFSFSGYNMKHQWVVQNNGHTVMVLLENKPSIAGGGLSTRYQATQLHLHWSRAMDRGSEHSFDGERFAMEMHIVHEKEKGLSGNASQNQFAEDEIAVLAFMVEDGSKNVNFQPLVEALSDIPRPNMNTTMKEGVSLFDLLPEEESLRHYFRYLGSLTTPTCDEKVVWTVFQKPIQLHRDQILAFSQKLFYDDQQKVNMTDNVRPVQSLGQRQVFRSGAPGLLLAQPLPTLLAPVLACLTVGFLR
Description: Inhibitory activity against bovine carbonic anhydrase IV

Carbonic anhydrase 1 = Carbonic anhydrase 1 (Homo sapiens, UniProt P00915)
Chain of Carbonic anhydrase 1 (P00915 whole entry): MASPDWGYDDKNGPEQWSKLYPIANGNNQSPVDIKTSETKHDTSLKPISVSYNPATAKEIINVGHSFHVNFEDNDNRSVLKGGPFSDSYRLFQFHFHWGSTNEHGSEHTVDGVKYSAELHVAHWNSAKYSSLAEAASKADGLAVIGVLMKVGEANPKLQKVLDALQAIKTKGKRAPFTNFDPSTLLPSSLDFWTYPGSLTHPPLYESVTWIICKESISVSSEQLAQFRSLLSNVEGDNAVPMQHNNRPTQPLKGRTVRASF
Description: Inhibitory activity against Human carbonic anhydrase I

Ki (Carbonic anhydrase 4)	Ki (Carbonic anhydrase 1) [nM]	Structure (SMILES)
31 nM	210	NS(=O)(=O)c1ccc(NC(=O)CN(CCOCCOCCN(CC(=O)O)CC(=O)O)CC(=O)O)c(F)c1
215 nM	1050	NS(=O)(=O)c1ccc(CCNC(=O)CN(CCN(CC(=O)O)c2ccccc2O)c2ccccc2O)cc1
1520 nM	23000	NS(=O)(=O)c1cccc(NC(=O)CN(CC(=O)O)CC(=O)O)c1
12 nM	56	NS(=O)(=O)c1nc2ccc(NC(=O)CNCCNCC(=O)O)cc2s1
9 nM	33	NS(=O)(=O)c1nc2ccc(NC(=O)CN(CCN(CC(=O)O)CC(=O)Nc3ccc4nc(S(N)(=O)=O)sc4c3)CC(=O)O)cc2s1
145 nM	400	NS(=O)(=O)c1cc(S(N)(=O)=O)c(NC(=O)CNCC(=O)O)cc1Cl
50 nM	130	NS(=O)(=O)c1ccc(NC(=O)CN(CCN(CC(=O)O)CC(=O)O)CC(=O)O)c(Br)c1
78 nM	123	NS(=O)(=O)c1ccc(NC(=O)CN(CCN(CC(=O)O)CC(=O)O)CC(=O)O)c(I)c1
50 nM	225	NS(=O)(=O)c1ccc(NC(=O)CN(CCN(CC(=O)O)CC(=O)Nc2ccc(S(N)(=O)=O)cc2Cl)CC(=O)O)c(Cl)c1
150 nM	960	NS(=O)(=O)c1ccc(NC(=O)CN(CC(=O)O)CC(=O)O)c(Cl)c1
279 nM	3600	NS(=O)(=O)c1ccc(CNC(=O)CNCC(=O)O)cc1
165 nM	450	NS(=O)(=O)c1ccc(CCOC(=O)CN(CCN(CC(=O)O)CC(=O)OCCc2ccc(S(N)(=O)=O)cc2)CC(=O)O)cc1
14 nM	65	NS(=O)(=O)c1nc2ccc(NC(=O)CNCC(=O)O)cc2s1
320 nM	11500	NS(=O)(=O)c1ccc(NC(=O)CN(CCN(CC(=O)O)c2ccccc2O)c2ccccc2O)cc1
950 nM	21800	NS(=O)(=O)c1ccc(NNC(=O)CNCCNCC(=O)O)cc1
20 nM	160	NS(=O)(=O)c1ccc(CCNC(=O)CN(CCOCCOCCN(CC(=O)O)CC(=O)NCCc2ccc(S(N)(=O)=O)cc2)CC(=O)O)cc1 [listing 1 of 2 here]
65 nM	93	NS(=O)(=O)c1cc(S(N)(=O)=O)c(NC(=O)CN(CCOCCOCCN(CC(=O)O)CC(=O)O)CC(=O)O)cc1Cl
980 nM	32700	NS(=O)(=O)c1ccc(NNC(=O)CNCC(=O)O)cc1
12 nM	46	NS(=O)(=O)c1nc2ccc(OCCOC(=O)CNCC(=O)O)cc2s1
123 nM	240	NS(=O)(=O)c1cc(S(N)(=O)=O)c(NC(=O)CN(CCN(CC(=O)O)c2ccccc2O)c2ccccc2O)cc1Cl
56 nM	175	NS(=O)(=O)c1ccc(NC(=O)CN(CCN(CC(=O)O)c2ccccc2O)c2ccccc2O)c(Br)c1
120 nM	710	Cn1nc(S(N)(=O)=O)s/c1=N/C(=O)CNCC(=O)O
800 nM	12500	NS(=O)(=O)c1ccccc1NC(=O)CN(CCN(CC(=O)O)c1ccccc1O)c1ccccc1O
750 nM	10000	NS(=O)(=O)c1cccc(NC(=O)CN(CCN(CC(=O)O)CC(=O)O)CC(=O)O)c1
45 nM	89	NS(=O)(=O)c1ccc(NC(=O)CN(CCN(CC(=O)O)CC(=O)Nc2ccc(S(N)(=O)=O)cc2I)CC(=O)O)c(I)c1
365 nM	12000	NS(=O)(=O)c1ccc(NC(=O)CNCCNCC(=O)O)cc1

Ki (Carbonic anhydrase 4)	Ki (Carbonic anhydrase 1) [nM]	Structure (SMILES)
860 nM	10000	NS(=O)(=O)c1cccc(NC(=O)CN(CCN(CC(=O)O)c2ccccc2O)c2ccccc2O)c1
23 nM	200	NS(=O)(=O)c1nnc(NC(=O)CCNC(=O)CN(CCN(CC(=O)O)CC(=O)O)CC(=O)O)s1
100 nM	345	NS(=O)(=O)c1cc(S(N)(=O)=O)c(NC(=O)CN(CC(=O)O)CC(=O)O)c(Cl)c1Cl
69 nM	72	NS(=O)(=O)c1cc(S(N)(=O)=O)c(NC(=O)CN(CCN(CC(=O)O)CC(=O)Nc2cc(Cl)c(S(N)(=O)=O)cc2S(N)(=O)=O)CC(=O)O)cc1Cl
105 nM	245	NS(=O)(=O)c1nnc(NC(=O)CN(CCN(CC(=O)O)c2ccccc2O)c2ccccc2O)s1
16 nM	35	NS(=O)(=O)c1ccc(CNC(=O)CN(CCOCCOCCN(CC(=O)O)CC(=O)NCc2ccc(S(N)(=O)=O)cc2)CC(=O)O)cc1
105 nM	210	NS(=O)(=O)c1cc(S(N)(=O)=O)c(NC(=O)CN(CCN(CC(=O)O)CC(=O)O)CC(=O)O)cc1Cl
79 nM	450	NS(=O)(=O)c1ccc(NC(=O)CN(CCN(CC(=O)O)c2ccccc2O)c2ccccc2O)c(F)c1
545 nM	8900	NS(=O)(=O)c1ccccc1NC(=O)CN(CCOCCOCCN(CC(=O)O)CC(=O)O)CC(=O)O
350 nM	1260	NS(=O)(=O)c1ccc(COC(=O)CNCC(=O)O)cc1
83 nM	900	NS(=O)(=O)c1ccc(CNC(=O)CN(CCN(CC(=O)O)CC(=O)O)CC(=O)O)cc1
12 nM	30	NS(=O)(=O)c1ccc(CCNC(=O)CN(CCOCCOCCN(CC(=O)O)CC(=O)NCCc2ccc(S(N)(=O)=O)cc2)CC(=O)O)cc1 [listing 2 of 2 here]
4 nM	55	NS(=O)(=O)c1nnc(NC(=O)CN(CCOCCOCCN(CC(=O)O)CC(=O)Nc2nnc(S(N)(=O)=O)s2)CC(=O)O)s1
240 nM	410	NS(=O)(=O)c1nnc(NC(=O)CN(CC(=O)O)CC(=O)O)s1
4 nM and 5 nM	16	NS(=O)(=O)c1nc2ccc(OC(=O)CN(CCN(CCN(CC(=O)O)CC(=O)Oc3ccc4nc(S(N)(=O)=O)sc4c3)CC(=O)O)CC(=O)O)cc2s1
57 nM	610	NS(=O)(=O)c1ccc(NC(=O)CNCC(=O)O)c(Br)c1
105 nM	250	NS(=O)(=O)c1cc(S(N)(=O)=O)c(NC(=O)CN(CCN(CC(=O)O)c2ccccc2O)c2ccccc2O)c(Cl)c1Cl
240 nM	3300	NS(=O)(=O)c1ccc(CCNC(=O)CN(CC(=O)O)CC(=O)O)cc1
400 nM	6150	NS(=O)(=O)c1cccc(NC(=O)CN(CCOCCOCCN(CC(=O)O)CC(=O)Nc2cccc(S(N)(=O)=O)c2)CC(=O)O)c1
310 nM	640	NS(=O)(=O)c1ccc(CCOC(=O)CN(CCN(CC(=O)O)CC(=O)O)CC(=O)O)cc1
136 nM	1000	NS(=O)(=O)c1ccc(NC(=O)CN(CC(=O)O)CC(=O)O)c(F)c1
5 nM	43	Cn1nc(S(N)(=O)=O)s/c1=N/C(=O)CN(CCN(CCN(CC(=O)O)CC(=O)/N=c1/sc(S(N)(=O)=O)nn1C)CC(=O)O)CC(=O)O
148 nM	300	NS(=O)(=O)c1cc(S(N)(=O)=O)c(NC(=O)CN(CC(=O)O)CC(=O)O)cc1Cl
330 nM	6300	NS(=O)(=O)c1ccc(NC(=O)CN(CCN(CC(=O)O)CC(=O)O)CC(=O)O)cc1
170 nM	4000	NS(=O)(=O)c1ccc(NC(=O)CN(CCOCCOCCN(CC(=O)O)CC(=O)O)CC(=O)O)cc1
20 nM	76	NS(=O)(=O)c1ccc(NC(=O)CN(CCOCCOCCN(CC(=O)O)CC(=O)Nc2ccc(S(N)(=O)=O)cc2I)CC(=O)O)c(I)c1
